Results taken from patent US20090042991A1, “Methods of increasing natural killer cell activity for therapy” (priority 2005, published 2009).
Values joined by “and” are separate entries in the source; they are usually repeats but may differ in a detail not shown here. Equal values may be shown once. “Also recorded” adds a separate entry of the source.

Key:
Type in all cases: in vivo, human
Melanoma study: safety = test: Melanoma study: safety
Procedure: The higher tolerated dose level was expanded to a total of 20 patients (Stage 1).
(§1) The study will continue to Stage 2 if 7 or more patients have a response of stable disease or better, or at least 2 patients have a partial response or better. A safety assessment was performed with the first 6 patients enrolled as the weekly dose schedule had not previously been studied in humans. The primary endpoint is non-progression rate (NPR) at 3 months and response rate. Pharmacodynamic parameters include pre and post-dose NK cell activity in blood and when possible, tumor biopsies.

NK cell activity [1] = test: NK cell cytotoxic activity of patient PBMC (K562/eGFP flow cytometry), sarcoma study; conditions: for % tumor cell lysis post-dose / NK activity (change before and after dosing) / % tumor cell lysis pre-dose: Paclitaxel 80 + Cmpnd (1) 213 mg/M^2 weekly; for % tumor cell lysis pre-dose: baseline before dosing
Excerpt: (§2) The following procedure can be employed to assay NK cell activity in a subject. The procedure is adapted from Kantakamalakul W, Jaroenpool J, Pattanapanyasat K. A novel enhanced green fluorescent protein (EGFP)-K562 flow cytometric method for measuring natural killer (NK) cell cytotoxic activity. J Immunol Methods. 2003 Jan. 15; 272:189-197, the entire teachings of which are incorporated herein by reference.
(§3) Materials and methods: Human erythroleukaemic cell line, K562, was obtained from American Type Culture Collection (CCL-243, American Type Culture Collection, Manassas, Va.), and cultured in RPMI-1640 medium (Cat#1875-093Gibco Invitrogen Corp, Carlsbad, Calif.) supplemented with 10% heat inactivated fetal calf serum (Gibco), 2 mM L-glutamin, 100 μg/ml streptomycin and 100 IU/ml penicillin at 37° C. with 5% CO2. K562 cells were transduced with retroviral vector which encode green fluorescent protein (eGFP). Stable cell line was selected with antibiotic, G418.
(§4) The subject's peripheral blood mononuclear cells (PBMCs) were prepared by clinical study sites and received in BD Vacutainer Cell Preparation Tube with sodium heparin (Product Number: 362753, Becton Dickinson, Franklin Lakes, N.J.).
(§5) Effector cells alone and target cells alone were used as controls. All tubes were incubated at 37° C. with 5% CO2 for about 3.5 hr. Ten microliters of propidium iodide (PI) at a concentration of 1 mg/mL was added t each tube including effector and target control tubes and then incubated at room temperature for 15 min.
(§6) Cytotoxic activity was analyzed with a FACSCalibur flow cytometer (Becton Dickinson). Linear amplification of the forward and side scatter (FSC/SSC) signals, as well as logarithmic amplification of eGFP and PI emission in green and red fluorescence were obtained. Ten thousand events per sample tube with no gating for acquisition were collected for analysis. Data analysis for two-parameter dot plots for eGFP versus PI was performed using CELLQuest (Becton Dickinson Biosciences) software to enumerate live and dead target cells. Debris and dead cells were excluded by setting a threshold of forward light scatter.
(§7) Best Response indicates an evaluation of the patient's tumor: PR=at least a 30% decrease in the sum of the longest diameters as compared to baseline; SD indicates less than 20% of an increase and less than 30% of a decrease in the sum of the longest diameters as compared to baseline; and PD=at least a 20% increase in the sum of the longest diameters as compared to baseline. NK Activity indicates the change in NK activity before and after dosing.

Sarcoma study: safety = conditions: 213 mg/m2 Compound (1) and 80 mg/m2 paclitaxel weekly
Procedure: The study is a 2 stage design, enrolling 30 patients in the first stage and adding 50 patients to total 80 if certain continuation criteria are met. Major inclusion criteria are refractory or recurrent soft tissue sarcomas other than gastrointestinal stromal tumor (GIST), with evidence of recent progression. […] For example, the compounds were administered together 3 weeks out of 4 on Days 1, 8, and 15 of a 28 day cycle as a 1 hour IV infusion. 30 Patients have been enrolled to completed accrual of Stage 1.

Hsp70 = test: Phase I trial: plasma Hsp70 by sandwich ELISA
Procedure: Plasma Hsp70 was measured by a sandwich ELISA kit (Stressgen Bioreagents Victoria, British Columbia, CANADA) according to a modified protocol in house. In brief, Hsp70 in plasma specimens and serial concentrations of Hsp70 standard were captured onto 96-well plate on which anti-Hsp70 antibody was coated. Then captured Hsp70 was detected with a biotinylated anti-Hsp70 antibody followed by incubation with europium-conjugated streptavidin. After each incubation unbound materials were removed by washing. Finally, antibody-Hsp70 complex was measured by time resolved fluorometry of europium. Concentration of Hsp70 was calculated from a standard curve.

NK cell activity [2] = test: NK cell cytotoxic activity of patient PBMC (K562/eGFP flow cytometry), melanoma study; conditions: for % tumor cell lysis pre-dose: baseline before dosing
Excerpt: as §2, §3, §4, §5, §6, §1
as §7, with “tumor:” for “tumor: PR=at least a 30% decrease in the sum of the longest diameters as compared to baseline;”

[3] = Effector/Target 80:1, one value per subject
[4] = Effector/Target (40:1), subject 30
[5] = Paclitaxel 80 + Cmpnd (1) 106 mg/M^2 weekly, Effector/Target 80:1, one value per subject
[6] = Paclitaxel 80 + Cmpnd (1) 213 mg/M^2 weekly, Effector/Target 80:1, one value per subject
[7] = Paclitaxel 80 + Cmpnd (1) 213 mg/M^2 weekly, Effector/Target (40:1), subject 15

SMILES: CN(NC(=O)CC(=O)NN(C)C(=S)c1ccccc1)C(=S)c1ccccc1 [Compound (1)]
- adverse events (Melanoma study: safety; Stage 1, with paclitaxel 80 mg/m2 weekly): as expected for paclitaxel chemotherapy administration
- dose-limiting toxicities (Melanoma study: safety; initial safety assessment, Compound (1) 106 or 213 mg/m2 with paclitaxel 80 mg/m2 weekly): absence of dose-limiting toxicities
- tolerability of the combination therapy (Melanoma study: safety; weekly schedule with paclitaxel): well-tolerated
- % tumor cell lysis post-dose (NK cell activity [1]; 7 days after second dose, Effector/Target 80:1, one value per subject): 14.74% and 22.9% and 28.13% and 17.18% and 5.46% and 7.41% and 7.84% and 30.48% and 20.04% and 11.86%
- NK activity (change before and after dosing) (NK cell activity [1]; [3]): decrease; also recorded: increase; also recorded: no change
- % tumor cell lysis post-dose (NK cell activity [1]; [4]): 9.91%
- NK activity (change before and after dosing) (NK cell activity [1]; [4]): no change
- % tumor cell lysis pre-dose (NK cell activity [1]; [3]): 22.33% and 10.6% and 17.93% and 6.58% and 2.62% and 13.03% and 15.77% and 4.28% and 20.74% and 34.28%
- % tumor cell lysis pre-dose (NK cell activity [1]; [4]): 9.88%
- patients with decrease in NK cell activity pre- to post-dose (NK cell activity [1]; original patients of Table 4): four of the original patients
- patients with statistically significant increase or no change in NK cell activity pre- to post-dose (NK cell activity [1]; original patients of Table 4): seven of the original patients
- tolerability of addition of Compound (1) to weekly paclitaxel schedule (Sarcoma study: safety): well-tolerated
- percent increase in Hsp70 plasma levels (Hsp70; Compound (1) 88 mg/m2 with paclitaxel, at least one patient): about 90%
- increase in Hsp70 plasma concentrations (Hsp70; Compound (1) 175 mg/m2 with paclitaxel, two patients): more than doubled
- increase in Hsp70 plasma concentrations (Hsp70; Compound (1) 263 mg/m2 with paclitaxel, individual patients): roughly doubled; also recorded: more than 250%
- increase in Hsp70 plasma concentrations (Hsp70; Compound (1) 438 mg/m2 with paclitaxel, individual patients): roughly doubled and ≤ 500%
- Induction of Hsp70 protein in plasma (Hsp70; Compound (1) with paclitaxel, human plasma): dose dependent
- plasma Hsp70 levels in patients (Hsp70; paclitaxel 175 mg/m2 and Compound (1) 88 through 438 mg/m2): dramatically increased
- % tumor cell lysis post-dose (NK cell activity [2]; Paclitaxel 80 + Cmpnd (1) 106 mg/M^2 weekly, 7 days after second dose, Effector/Target 80:1, one value per subject): 7.74% and 2.43%
- NK activity (change before and after dosing) (NK cell activity [2]; [5]): increase; also recorded: decrease
- % tumor cell lysis post-dose (NK cell activity [2]; Paclitaxel 80 + Cmpnd (1) 213 mg/M^2 weekly, 7 days after second dose, Effector/Target 80:1, one value per subject): 10.77% and 19.78% and 26.52% and 8.64% and 18.77% and 5.2% and 26.31% and 7.2%
- NK activity (change before and after dosing) (NK cell activity [2]; [6]): increase; also recorded: no change; also recorded: decrease
- % tumor cell lysis post-dose (NK cell activity [2]; [7]): 10.01%
- NK activity (change before and after dosing) (NK cell activity [2]; [7]): (increase)
- % tumor cell lysis pre-dose (NK cell activity [2]; [5]): 2.32% and 6.13%
- % tumor cell lysis pre-dose (NK cell activity [2]; [6]): 3.83% and 19.71% and 41.61% and 8.6% and 24.76% and 16.49% and 15.4% and 10.81%
- % tumor cell lysis pre-dose (NK cell activity [2]; [7]): 3.5%
- patients with statistically significant increase in NK cell activity pre- to post-dose (NK cell activity [2]; original patients of Table 3): four of the original patients
